These results are taken from patent US11142529B2 (priority 2013, dated 2021).

pKi: −log10 of the molar value.

In one series the test system is aged-impaired (AI) rats. In words: Morris water maze behavioral task (Example 109). As to conditions: 100 μg ICV. In kind it is in vivo, rat. On the procedure: The effects of 6,6 dimethyl-3-(3-hydroxypropyl)thio-1-(thiazol-2-yl)-6,7-dihydro-2-benzothiophen-4(5H)-one on the in vivo spatial memory retention of aged-impaired (AI) rats were assessed in a Morris water maze behavioral task. A water maze is a pool surrounded with a novel set of patterns relative to the maze.
Cognitively impaired aged rats were implanted unilaterally with a cannula into the lateral ventricle. Stereotaxic coordinates were 1.0 mm posterior to bregma, 1.5 mm lateral to midline, and 3.5 mm ventral to the skull surface. After about a week of recovery, the rats were pre-trained in a water maze for 2 days (6 trials per day) to locate a submerged escape platform hidden underneath the surface of the pool, in which the escape platform location varied from day to day. No intracerebroventricular (ICV) infusion was given during pre-training.
After pre-training, rats received ICV infusion of either 100 μg 6,6 dimethyl-3-(3-hydroxypropyl)thio-1-(thiazol-2-yl)-6,7-dihydro-2-benzothiophen-4(5H)-one (n=6) in 5 μl DMSO or vehicle DMSO (n=5) 40 min prior to water maze training and testing. Training consisted of 8 trials per day for 2 days where the hidden escape platform remained in the same location. Rats were given 60 seconds to locate the platform with a 60 seconds inter-trial interval. The rats were given a probe test (120 seconds) 24 hr after the end of training where the escape platform was removed. During the training, there were 4 blocks, where each block had 4 training trials.
During a test trial 24 hr after training, the escape platform was removed. The search/swim pattern of the rats was used to measure whether the rats remember where the escape platform was located during pre-trial training in order to test for the long-term memory of the rats. In this trial, “target annulus” is a designated area 1.5 times the size of the escape platform around the area where the platform was located during pre-trial training. “Opposite annulus” is a control area of the same size as the size of the target annulus, which is located opposite to the target annulus in the pool. If the rats had good long term memory, they would tend to search in the area surrounding the location where the platform was during the pre-trial training (i.e., the “target” annulus; and not the “opposite” annulus). “Time in annulus” is the amount of time in seconds that the rat spent in the target or opposite annulus area. “Number (#) of crossings” in annulus is the number of times the rat swam across the target or opposite annulus area.

A further series relates to MAM-treated rats. The note with it: cited from earlier work.
The target in another series is T1, α5β3γ2 GABAA receptors (Homo sapiens, UniProt P18507+P31644).
T1 construct: membranes
Briefly: Binding activity of test compounds on GABAAR ([3H]Ro15-1788 inhibition, Ltk cell membranes). On the procedure: The binding was performed on Ltk cells stably expressing GABAA receptors: α1β1γ2, α2β3γ2, α3β3γ2 and α5β3γ2 (provided by Merck Co., NJ, USA). Cells were seeded in 100 mm culture plates in DMEM/F12 medium containing 10% serum and antibiotics in 5% C02 and allowed to grow for 1-2 days. GABAAR expression was then induced by dexamethasone as follows: 0.5 μM for 1 day for α5 containing and 2 μM for 3 days for α1, α2 and α3 containing GABAARs. After induction, cells were collected by scraping into Dulbecco's Phosphate buffered saline (DPBS, pH 7.4, Invitrogen, Carlsbad, Calif., USA) and centrifuged at 150×g for 10 min. The pellet was washed twice by re-suspension and centrifugation. The cell pellets from at least 5 different preps were combined, suspended in the binding assay buffer (50 mM KH2PO4; 1 mM EDTA; 0.2 M KCl, pH 7.4) and membranes prepared by sonication (3-5 times, 30 sec) using Branson Sonifier 150 (G.Heinmann, Germany). Protein content was determined using BCA assay (Bio-Rad Labs, Reinach, Switzerland) with Bovine Serum Albumin (Sigma Aldrich, St. Louis, Mo., USA) as the standard. Aliquots were prepared and stored at −20° C. for further use in binding assays.
Saturation binding curves were obtained by incubating membranes with increasing concentrations (0.01-8 nM) of [^3H]Ro15-1788 (Flumazepil, 75-85 Ci/mmol, PerkinElmer, MA, USA), with nonspecific binding measured in the presence of 10 μM diazepam.
All binding assays were performed for 1 h at 4° C. in assay buffer. The total assay volume was 0.5 ml containing 0.2 mg/ml protein for α5 and 0.4 mg/ml for α1, α2, and α3 containing GABAAR membranes. Incubations were terminated by filtration through GF/B filters using a 24-Cell Harvestor (Brandel, Gaithersburg, Md., USA) followed by 3 washes with ice-cold assay buffer. Filters were transferred to scintillation vials, 5 ml scintillation liquid added, vortex-mixed and kept in dark. Next day, radioactivity was obtained using a scintillation counter (Beckman Coulter, Brea, Calif., USA). All assays were performed in triplicate.
Saturation and inhibition curves were obtained using GraphPad Prism software (GraphPad Software, Inc., CA, USA).

The target in the next series is T2, GABAA receptors (α5β2γ2) (Homo sapiens, UniProt P18507+P31644).
T2 construct: expressed in transfected cells; host or cells: oocytes injected with a mix of alpha, beta and gamma cDNA (1:1:10 by weight)
In words: Positive allosteric modulator activity, potentiation of EC20 GABA current in oocytes. In kind it is cell-based. The note with it: read-out: GABA α5 functional potentiation. On the procedure: On day 1, 1 ng/32 nL of GABAA […] cDNA was injected into one oocyte. Test starts on day 2. The cDNA injected to the oocytes was a mix of alpha, beta and gamma, their ratio is 1:1:10 (by weight) and the total weight of the mixed 3 subunits to be injected in one oocyte was 1 ng in 32 nl volume. The injected oocytes can also be tested on day 3. In such case, the cDNA amount injected to the oocytes should be reduced by 20%.
1). 8 oocytes were placed in 8 chambers of OpusXpress and superfused with Modified Barth's Saline (MBS) at 3 mL/min. Glass electrodes back-filled with 3M KCl (0.5-3 megaohms) were used.
3). […] Oocytes were washed with MBS for 5-10 min.
2). […] Divide Itest by IGABA to obtain potentiation (%).
3). Discard all tested oocytes, new oocytes were used and the above steps 1) and 2) were repeated to test second concentration of the same compound. Each oocyte was used for only one concentration test for a single test compound. The steps were repeated for other test compounds.

The target in another series is T3, GABAAα5 receptor (Rattus norvegicus, UniProt P18508+P19969).
T3 construct: occupancy in the hippocampus (a region of high GABAAα5 receptor density); from tissue; host or cells: rat brain in vivo; hippocampus versus cerebellum
In words: GABAA α5 receptor occupancy with Ro 15-4513 tracer (Example 107B). The series is classed as in vivo, Long Evans rats. From the text:
Food and water were available ad libitum.

The mark [1] stands for this setting: probe test 24 hr after training.
Where [2] appears, read: vehicle then tracer 1 μg/kg i.v.

T3 sequence (P19969 32-464 limits assumed): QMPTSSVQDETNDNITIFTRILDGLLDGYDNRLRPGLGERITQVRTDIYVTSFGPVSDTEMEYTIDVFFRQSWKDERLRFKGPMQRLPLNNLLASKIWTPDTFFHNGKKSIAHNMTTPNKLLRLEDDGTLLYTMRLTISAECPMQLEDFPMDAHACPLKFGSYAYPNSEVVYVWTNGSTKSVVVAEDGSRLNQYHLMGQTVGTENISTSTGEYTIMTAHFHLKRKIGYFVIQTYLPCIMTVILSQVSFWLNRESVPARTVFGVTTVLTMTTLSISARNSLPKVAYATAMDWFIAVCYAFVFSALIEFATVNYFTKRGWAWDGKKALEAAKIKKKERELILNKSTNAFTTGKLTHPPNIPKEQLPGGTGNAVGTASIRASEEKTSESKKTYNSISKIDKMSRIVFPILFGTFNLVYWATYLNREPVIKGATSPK
T3 sequence (P18508 39-466): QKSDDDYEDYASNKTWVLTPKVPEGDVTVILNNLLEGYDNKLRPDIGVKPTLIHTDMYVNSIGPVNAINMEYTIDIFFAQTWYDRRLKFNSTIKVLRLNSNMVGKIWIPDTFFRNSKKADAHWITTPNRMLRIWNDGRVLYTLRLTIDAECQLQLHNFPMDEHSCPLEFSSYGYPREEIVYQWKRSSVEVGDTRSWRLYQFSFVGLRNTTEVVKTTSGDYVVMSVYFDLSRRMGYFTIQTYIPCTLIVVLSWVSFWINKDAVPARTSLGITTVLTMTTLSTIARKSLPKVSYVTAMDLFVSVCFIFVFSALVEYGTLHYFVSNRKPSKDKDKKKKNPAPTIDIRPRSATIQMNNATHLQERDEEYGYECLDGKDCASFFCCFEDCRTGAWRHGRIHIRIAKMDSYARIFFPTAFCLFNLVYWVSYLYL
T2 sequence (P31644 32-462): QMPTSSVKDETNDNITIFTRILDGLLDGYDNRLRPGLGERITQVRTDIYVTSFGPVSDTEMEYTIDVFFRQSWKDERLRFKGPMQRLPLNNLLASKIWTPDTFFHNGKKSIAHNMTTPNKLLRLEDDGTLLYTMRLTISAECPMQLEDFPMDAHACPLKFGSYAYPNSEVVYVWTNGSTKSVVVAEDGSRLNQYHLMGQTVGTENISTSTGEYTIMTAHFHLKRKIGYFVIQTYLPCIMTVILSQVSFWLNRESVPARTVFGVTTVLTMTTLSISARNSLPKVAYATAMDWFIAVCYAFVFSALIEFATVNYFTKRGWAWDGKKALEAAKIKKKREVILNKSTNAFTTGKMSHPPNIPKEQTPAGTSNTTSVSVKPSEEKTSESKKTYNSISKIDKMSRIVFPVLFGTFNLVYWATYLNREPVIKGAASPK
T2 sequence (P47870 25-512 partner limits assumed): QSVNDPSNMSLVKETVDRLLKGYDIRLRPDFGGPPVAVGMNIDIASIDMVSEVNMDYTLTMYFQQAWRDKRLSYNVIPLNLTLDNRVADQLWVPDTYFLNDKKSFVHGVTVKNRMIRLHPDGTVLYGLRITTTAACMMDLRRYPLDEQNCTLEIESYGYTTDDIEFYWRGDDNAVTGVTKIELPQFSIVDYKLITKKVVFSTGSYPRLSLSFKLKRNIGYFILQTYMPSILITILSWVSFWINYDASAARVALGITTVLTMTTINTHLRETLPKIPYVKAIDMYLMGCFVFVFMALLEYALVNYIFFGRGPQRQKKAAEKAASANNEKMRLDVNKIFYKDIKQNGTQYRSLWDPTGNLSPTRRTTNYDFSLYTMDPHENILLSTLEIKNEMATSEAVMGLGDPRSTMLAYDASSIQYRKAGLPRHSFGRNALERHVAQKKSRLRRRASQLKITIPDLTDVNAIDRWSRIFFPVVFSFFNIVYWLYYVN
T2 sequence (P18507 40-475): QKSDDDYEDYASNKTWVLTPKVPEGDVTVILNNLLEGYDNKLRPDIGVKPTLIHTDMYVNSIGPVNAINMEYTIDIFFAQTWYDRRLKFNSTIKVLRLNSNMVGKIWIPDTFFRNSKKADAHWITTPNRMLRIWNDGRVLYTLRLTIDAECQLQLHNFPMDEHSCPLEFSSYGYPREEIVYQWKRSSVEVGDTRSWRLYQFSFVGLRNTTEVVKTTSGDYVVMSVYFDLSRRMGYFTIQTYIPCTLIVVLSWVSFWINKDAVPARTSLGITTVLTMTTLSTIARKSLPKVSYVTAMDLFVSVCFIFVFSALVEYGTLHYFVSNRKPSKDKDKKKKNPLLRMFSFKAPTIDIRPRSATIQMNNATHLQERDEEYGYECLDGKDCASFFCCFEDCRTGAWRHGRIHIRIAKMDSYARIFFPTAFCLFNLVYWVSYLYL
T1 sequence (P31644 32-462): as the sequence (P31644 32-462) above
T1 sequence (P28472 26-473 partner): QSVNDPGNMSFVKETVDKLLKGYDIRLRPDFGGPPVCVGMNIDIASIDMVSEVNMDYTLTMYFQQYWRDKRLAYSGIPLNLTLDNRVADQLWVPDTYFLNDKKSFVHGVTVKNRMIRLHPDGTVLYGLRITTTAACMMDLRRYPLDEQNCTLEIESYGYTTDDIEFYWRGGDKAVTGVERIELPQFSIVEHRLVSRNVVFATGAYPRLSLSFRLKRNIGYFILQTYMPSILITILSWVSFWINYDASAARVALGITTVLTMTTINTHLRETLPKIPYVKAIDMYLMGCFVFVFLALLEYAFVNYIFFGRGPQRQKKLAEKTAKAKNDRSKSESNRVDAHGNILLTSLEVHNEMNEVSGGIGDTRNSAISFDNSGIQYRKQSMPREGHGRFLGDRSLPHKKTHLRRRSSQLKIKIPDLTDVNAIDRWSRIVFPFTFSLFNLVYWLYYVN
T1 sequence (P18507 40-475): as the sequence (P18507 40-475) above

Consider `CC1(C)CC(=O)c2c(SCCCO)sc(-c3nccs3)c2C1` [6,6 dimethyl-3-(3-hydroxypropyl)thio-1-(thiazol-2-yl)-6,7-dihydro-2-benzothiophen-4(5H)-one], for which, in the series on aged-impaired (AI) rats, the “learning of the water maze task” value is “improved the learning” and the “long-term memory in the water maze task” value is given as “improved the long-term memory”. In addition, in the series on aged-impaired (AI) rats (setting [1]), the “number of crossings of target annulus compared to opposite annulus” value is on record as “more often” and the “time in target annulus compared to opposite annulus” value is on record as “spent significantly more time in the target annulus”. The “time to find the escape platform (escape latency)” value in the series with aged-impaired (AI) rats (training block 1) is “about 24 seconds”. Moreover, the “time to find the escape platform (escape latency)” value in the series with aged-impaired (AI) rats (training block 4) is reported as “about 9.6 seconds”.
Consider `C#Cc1ccc2c(c1)C(c1ccccc1F)=N[C@H](C)c1c(C(=O)OCC)ncn1-2` [SH-053-2′F—R—CH3], for which the “increased locomotor response to amphetamine in MAM-treated rats” value in the series on MAM-treated rats (rat, in vivo) is “is reduced”. For the same molecule, the “cortical-evoked responses of HPC neurons” value in the series with MAM-treated rats (saline-treated and MAM-treated animals) is recorded as “diminished cortical-evoked responses”.
Molecule `Cc1nnn2c1Cc1c(-c3noc(C(C)(C)C)n3)ncn1-c1ccc(F)cc1-2` [Compound 160] gave a negative logarithm of the Ki (pKi) on α5β3γ2 GABAA receptors of over 7.00. In addition, the activation at 0.1 µM at GABAA receptors (α5β2γ2) was over 50%.
`CCOC(=O)c1ncn2c1Cn1c(COc3ccccc3)nnc1-c1cc(F)ccc1-2` [Compound 137] had a pKi on α5β3γ2 GABAA receptors of over 7.00. For the same molecule, the activation at 0.1 µM at GABAA receptors (α5β2γ2) lay in the range of 20 to 49%.
The matching figures for `COc1ccc2c(c1)-c1nnc(COc3ccccc3)n1Cc1c(-c3nc(C)no3)ncn1-2` [Compound 118]: over 7.00 and 20 to 49%.
For `Cc1nnn2c1Cc1c(C(=O)OCC(F)(F)F)ncn1-c1ccc(F)cc1-2` [Compound 114], in that order: over 7.00 and over 50%.
For `COCc1nnc2n1Cc1c(-c3nc(C(C)C)no3)ncn1-c1ccc(OC)cc1-2` [Compound 130], in that order: over 7.00 and 20 to 49%.
At α5β3γ2 GABAA receptors, `CCOC(=O)c1ncn2c1Cc1c(Cc3ccc(Cl)cc3)nnn1-c1cc(F)ccc1-2` [Compound 45] showed a pKi of over 7.00. For the same molecule, the activation at 0.1 µM at GABAA receptors (α5β2γ2) lay within 20 to 49%.
In the case of `Cc1nc(-c2ncn3c2Cc2c(C)nnn2-c2cc(F)ccc2-3)no1` [Compound 145], at α5β3γ2 GABAA receptors, the negative logarithm of the Ki (pKi) is over 7.00. Besides, the activation at 0.1 µM at GABAA receptors (α5β2γ2) is over 50%.
With `CCOC(=O)c1ncn2c1Cc1c(COc3ccccc3)nnn1-c1cc(OC)ccc1-2` [Compound 9], the pKi on α5β3γ2 GABAA receptors was over 7.00. The activation at 0.1 µM on GABAA receptors (α5β2γ2) was in the range of 20 to 49%.
For `COc1ccc2c(c1)-c1nnc(COC3CCCC3)n1Cc1c(-c3noc(C(C)C)n3)ncn1-2` [Compound 178], in that order: over 7.00 and over 50%.
The matching figures for `CCc1nc(-c2ncn3c2Cc2c(C)nnn2-c2cc(F)ccc2-3)no1` [Compound 155]: over 7.00 and 20 to 49%.
The matching figures for `Cc1nc(-c2ncn3c2Cn2c(COc4ccccc4)nnc2-c2cc(F)ccc2-3)no1` [Compound 148]: over 7.00 and 20 to 49%.
As for `Cc1nnn2c1Cc1c(-c3nc(C(C)C)no3)ncn1-c1ccccc1-2` [Compound 132], the pKi on α5β3γ2 GABAA receptors was over 7.00. Besides, the activation at 0.1 µM on GABAA receptors (α5β2γ2) lay within 20 to 49%.
The matching figures for `COc1ccc2c(c1)-c1nnc(COc3ccccc3F)n1Cc1c(-c3noc(C(C)C)n3)ncn1-2` [Compound 174]: over 7.00 and over 50%.
The matching figures for `CC(C)c1nc(-c2ncn3c2Cn2c(COc4ccccc4)nnc2-c2cc(F)ccc2-3)no1` [Compound 147]: over 7.00 and 20 to 49%.
The matching figures for `Cc1noc(-c2ncn3c2Cc2c(C)nnn2-c2ccccc2-3)n1` [Compound 126]: over 7.00 and 20 to 49%.
`CCOC(=O)c1ncn2c1Cc1c(C)nnn1-c1cc(OC)ccc1-2` [Compound 1]: on α5β3γ2 GABAA receptors, the negative logarithm of the Ki (pKi) was over 7.00. Moreover, the activation at 0.1 µM at GABAA receptors (α5β2γ2) fell in the range of 20 to 49%.
For `CCOC(=O)c1ncn2c1Cc1c(CN3CCCC3)nnn1-c1cc(OC)ccc1-2` [Compound 48], in that order: over 7.00 and 20 to 49%.
For `COc1ccc2c(c1)-c1nnc(COc3ccc(F)cc3)n1Cc1c(-c3noc(C(C)C)n3)ncn1-2` [Compound 172], in that order: over 7.00 and over 50%.
The matching figures for `Cc1nnn2c1Cc1c(C(=O)OC(C)C)ncn1-c1ccccc1-2` [Compound 153]: over 7.00 and 20 to 49%.
At α5β3γ2 GABAA receptors, `Cc1nnn2c1Cc1c(-c3noc(C(C)C)n3)ncn1-c1ccc(F)cc1-2` [Compound 149] gave a pKi of over 7.00. In addition, the activation at 0.1 µM at GABAA receptors (α5β2γ2) is over 50%.
For `Cc1noc(-c2ncn3c2Cc2c(Cc4ccccc4)nnn2-c2cc(F)ccc2-3)n1` [Compound 109], in that order: over 7.00 and 20 to 49%.
In the case of `CCOC(=O)c1ncn2c1CN(C)C(=O)c1cc(N=[N+]=[N-])ccc1-2` [Ro 15-4513], the “Ro 15-4513 level in hippocampus compared with cerebellum” value on GABAAα5 receptor (tracer 1 μg/kg i.v.) is recorded as over 5 fold. Also, on GABAAα5 receptor (setting [2]), the “level of Ro 15-4513 in cerebellum” value stood at 0.36 ± 0.02 ng/g and the “level of Ro 15-4513 in hippocampus” value came to 1.93 ± 0.05 ng/g.
The molecule `COc1ccc2c(c1)-c1nnc(COc3ccccc3)n1Cc1c(-c3noc(C(C)C)n3)ncn1-2` [Compound 171] showed a pKi at α5β3γ2 GABAA receptors of over 7.00. Moreover, the activation at 0.1 µM at GABAA receptors (α5β2γ2) is over 50%.
The matching figures for `CCOCc1nnc2n1Cc1c(-c3noc(C(C)C)n3)ncn1-c1ccc(OC)cc1-2` [Compound 173]: over 7.00 and over 50%.
The matching figures for `CCOC(=O)c1ncn2c1Cc1c(Cc3cccnc3)nnn1-c1cc(C)ccc1-2` [Compound 111]: over 7.00 and 20 to 49%.
As for `COc1ccc2c(c1)-c1nnc(COc3cccnc3)n1Cc1c(-c3noc(C(C)C)n3)ncn1-2` [Compound 176], the pKi at α5β3γ2 GABAA receptors is over 7.00. The activation at 0.1 µM on GABAA receptors (α5β2γ2) was over 50%.

What is called pKi is −log10 of the Ki, conventionally taken in molar units. Read a high pKi as a low Ki.
